US10807944B2, “HDAC inhibitor compounds and methods of treatment” (priority 2014, dated 2020)
Where two headings read alike, the source gives them in different places.

What was measured:
HDAC10 = HDAC10 (Homo sapiens (Human), UniProt Q969S8); test: HDAC10 in vitro inhibition, dose response; type: biochemical; settings: Table 1; read-out: Inhibitory Potency (IC50) HDAC 10
MDA-MB-231 cells [1] = settings: MDA-MB-231 monolayer scratch; UF010 at 1 μM
HDAC1 [2] = molecular target: T1, HDAC1 (Homo sapiens (Human), UniProt Q13547); test: HDAC-1 inhibition potency, luminescence readout; type: biochemical; settings: Table 6, luminescence readout
T1 sequence (Q13547 whole entry): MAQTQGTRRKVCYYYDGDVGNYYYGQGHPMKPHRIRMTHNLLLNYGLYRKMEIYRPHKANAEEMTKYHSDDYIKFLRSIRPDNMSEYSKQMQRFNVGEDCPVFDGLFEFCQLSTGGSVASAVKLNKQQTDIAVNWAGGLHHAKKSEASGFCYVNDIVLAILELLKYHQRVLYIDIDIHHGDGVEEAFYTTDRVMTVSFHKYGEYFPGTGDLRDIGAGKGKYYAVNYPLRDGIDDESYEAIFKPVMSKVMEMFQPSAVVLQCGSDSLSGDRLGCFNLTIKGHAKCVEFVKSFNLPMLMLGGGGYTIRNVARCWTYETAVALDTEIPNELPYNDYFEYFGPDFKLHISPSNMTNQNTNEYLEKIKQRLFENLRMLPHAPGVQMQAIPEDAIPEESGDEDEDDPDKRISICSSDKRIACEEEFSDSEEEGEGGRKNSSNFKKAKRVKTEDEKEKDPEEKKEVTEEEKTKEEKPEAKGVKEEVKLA
From the text: (§1) Compounds were examined for their HDAC inhibitory activity and their effect on cancer cell viability (MDA-MB-231 cells).

CDKN1A = test: qPCR of CDKN1A encoding p21; type: cell-based; settings: MDA-MB-231
HDAC4 = HDAC4 (Homo sapiens (Human), UniProt P56524); test: HDAC4 in vitro inhibition, dose response; type: biochemical; settings: Table 1; read-out: Inhibitory Potency (IC50) HDAC 4
HDAC1 [3] = molecular target: T1, HDAC1; test: In vitro HDAC1 inhibition of HTS hits (HDAC I/II-Glo reagents); type: biochemical; settings: HTS follow-up
MDA-MB-231 cells [4] = test: Global gene expression (Affymetrix Human Transcriptome Array 2.0) with Ingenuity Pathway Analysis; type: cell-based; settings: 24 h; for Predicated activation state, Biological Functions / Predicated activation state, Upstream Regulators: 1 μM
HDAC2 [5] = molecular target: T2, HDAC2 (Homo sapiens (Human), UniProt Q92769); test: HDAC-2 inhibition potency, luminescence readout; type: biochemical; settings: Table 6, luminescence readout
T2 sequence (Q92769 whole entry): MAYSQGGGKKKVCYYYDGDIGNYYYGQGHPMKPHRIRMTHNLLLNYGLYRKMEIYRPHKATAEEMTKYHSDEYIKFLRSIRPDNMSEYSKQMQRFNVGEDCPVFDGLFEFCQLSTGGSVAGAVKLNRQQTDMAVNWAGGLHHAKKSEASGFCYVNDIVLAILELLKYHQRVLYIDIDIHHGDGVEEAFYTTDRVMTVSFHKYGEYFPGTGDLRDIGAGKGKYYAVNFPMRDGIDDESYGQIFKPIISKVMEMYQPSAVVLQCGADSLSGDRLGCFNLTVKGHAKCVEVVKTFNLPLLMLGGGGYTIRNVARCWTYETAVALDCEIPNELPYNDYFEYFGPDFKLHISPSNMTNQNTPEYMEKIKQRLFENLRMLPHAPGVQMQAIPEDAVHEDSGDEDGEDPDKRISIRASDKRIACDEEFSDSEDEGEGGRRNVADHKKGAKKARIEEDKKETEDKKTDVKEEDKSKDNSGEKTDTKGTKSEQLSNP
From the text: as §1

HDAC5 = HDAC5 (Homo sapiens (Human), UniProt Q9UQL6); test: HDAC5 in vitro inhibition, dose response; type: biochemical; settings: Table 1; read-out: Inhibitory Potency (IC50) HDAC 5
Chain of HDAC5 (Q9UQL6 whole entry): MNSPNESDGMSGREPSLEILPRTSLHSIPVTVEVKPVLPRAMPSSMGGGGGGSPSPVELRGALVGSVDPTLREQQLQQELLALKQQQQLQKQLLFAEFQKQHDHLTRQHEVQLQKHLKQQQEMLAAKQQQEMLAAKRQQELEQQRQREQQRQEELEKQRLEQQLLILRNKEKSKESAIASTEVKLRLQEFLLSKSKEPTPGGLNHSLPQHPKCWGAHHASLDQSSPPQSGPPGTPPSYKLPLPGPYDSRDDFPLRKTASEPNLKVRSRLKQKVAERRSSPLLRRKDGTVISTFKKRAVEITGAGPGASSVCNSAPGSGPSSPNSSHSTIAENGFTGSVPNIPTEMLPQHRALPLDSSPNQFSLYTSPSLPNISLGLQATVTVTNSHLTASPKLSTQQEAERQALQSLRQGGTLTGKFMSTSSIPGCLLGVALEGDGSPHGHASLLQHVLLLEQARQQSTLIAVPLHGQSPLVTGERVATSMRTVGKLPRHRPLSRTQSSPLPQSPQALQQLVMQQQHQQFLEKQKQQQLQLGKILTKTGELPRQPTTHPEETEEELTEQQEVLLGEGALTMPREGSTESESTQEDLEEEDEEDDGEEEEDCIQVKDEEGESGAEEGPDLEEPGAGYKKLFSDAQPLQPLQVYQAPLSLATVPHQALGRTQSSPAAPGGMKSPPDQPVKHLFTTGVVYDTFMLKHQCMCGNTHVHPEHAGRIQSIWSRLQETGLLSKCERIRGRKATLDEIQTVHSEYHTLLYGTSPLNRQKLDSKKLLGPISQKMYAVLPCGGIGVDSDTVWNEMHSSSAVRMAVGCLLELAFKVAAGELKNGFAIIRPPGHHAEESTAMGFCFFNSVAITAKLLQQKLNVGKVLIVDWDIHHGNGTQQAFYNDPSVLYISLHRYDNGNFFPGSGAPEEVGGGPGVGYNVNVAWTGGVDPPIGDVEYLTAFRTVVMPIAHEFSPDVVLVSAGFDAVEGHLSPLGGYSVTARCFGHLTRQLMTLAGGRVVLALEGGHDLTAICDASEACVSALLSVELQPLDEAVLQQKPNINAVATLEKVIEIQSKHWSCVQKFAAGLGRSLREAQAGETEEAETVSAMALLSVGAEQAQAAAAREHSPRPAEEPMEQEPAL

HDAC9 = HDAC9 (Homo sapiens (Human), UniProt Q9UKV0); test: HDAC9 in vitro inhibition, dose response; type: biochemical; settings: Table 1; read-out: Inhibitory Potency (IC50) HDAC 9
[6] = tested on: NCI-60 panel of cancer cell lines; test: NCI-60 panel of cancer cell lines, cell growth; type: cell-based; settings: all tested cell lines
MDA-MB-231 cells [7] = test: Cancer cell viability (CellTiter-Glo); type: cell-based; settings: Homo sapiens, MDA-MB-231, read-out: Cancer cell (MDA-MB-231) killing IC50
HCT116 cells = test: H3K18ac after 6 h pulse treatment and drug washout; type: cell-based
HDAC3 [8] = molecular target: T3, HDAC3 (Homo sapiens (Human), UniProt O15379); test: HDAC-3 inhibition potency, luminescence readout; type: biochemical; settings: Table 6, luminescence readout
T3 sequence (O15379 whole entry): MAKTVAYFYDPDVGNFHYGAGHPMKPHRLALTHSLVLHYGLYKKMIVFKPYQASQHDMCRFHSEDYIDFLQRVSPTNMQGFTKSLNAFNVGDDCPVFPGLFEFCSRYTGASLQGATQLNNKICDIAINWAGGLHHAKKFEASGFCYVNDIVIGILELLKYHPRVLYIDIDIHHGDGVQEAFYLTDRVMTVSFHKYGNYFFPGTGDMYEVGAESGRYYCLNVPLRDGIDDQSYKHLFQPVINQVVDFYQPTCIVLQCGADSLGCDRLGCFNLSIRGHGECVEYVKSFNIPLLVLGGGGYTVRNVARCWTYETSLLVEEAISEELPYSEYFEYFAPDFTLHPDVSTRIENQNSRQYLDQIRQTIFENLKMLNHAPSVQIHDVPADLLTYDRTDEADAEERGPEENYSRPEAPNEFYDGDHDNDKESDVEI
T3 sequence (Q9Y618 395-489 partner): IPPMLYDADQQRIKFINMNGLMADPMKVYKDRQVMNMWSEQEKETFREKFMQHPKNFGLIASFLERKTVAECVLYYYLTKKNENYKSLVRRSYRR

MDA-MB-231 cells [9] = test: Cell cycle analysis by FACS; type: cell-based; settings: MDA-MB-231, 24 h, dose-dependent
HDAC8 = HDAC8 (Homo sapiens (Human), UniProt Q9BY41); test: HDAC8 in vitro inhibition, dose response; type: biochemical
Chain of HDAC8 (Q9BY41 whole entry): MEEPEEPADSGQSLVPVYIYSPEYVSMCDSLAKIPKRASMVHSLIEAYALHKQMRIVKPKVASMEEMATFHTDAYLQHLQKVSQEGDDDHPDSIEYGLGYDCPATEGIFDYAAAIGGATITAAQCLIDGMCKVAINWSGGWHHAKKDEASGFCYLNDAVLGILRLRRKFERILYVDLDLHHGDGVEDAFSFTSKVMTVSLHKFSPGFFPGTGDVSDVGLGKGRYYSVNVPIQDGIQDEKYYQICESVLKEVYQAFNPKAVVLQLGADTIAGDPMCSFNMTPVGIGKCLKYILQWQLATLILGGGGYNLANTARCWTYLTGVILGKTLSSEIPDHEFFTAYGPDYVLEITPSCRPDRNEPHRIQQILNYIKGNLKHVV

MDA-MB-468 cells = test: Viability of MDA-MB-468 cells, with or without HDAC shRNA; settings: for IC50: Homo sapiens
HDAC11 = HDAC11 (Homo sapiens (Human), UniProt Q96DB2); test: HDAC11 in vitro inhibition, dose response; type: biochemical; settings: Table 1; read-out: Inhibitory Potency (IC50) HDAC 11
[10] = mouse, in vivo, po
HDAC3 [11] = molecular target: T3, HDAC3; test: HDAC3 in vitro inhibition, dose response; type: biochemical
HCT116 and A549 cells = test: Acetylation of non-histone proteins by Western blotting; type: cell-based
HDAC6 = HDAC6 (Homo sapiens (Human), UniProt Q9UBN7); test: HDAC6 in vitro inhibition, dose response; type: biochemical
Chain of HDAC6 (Q9UBN7 whole entry): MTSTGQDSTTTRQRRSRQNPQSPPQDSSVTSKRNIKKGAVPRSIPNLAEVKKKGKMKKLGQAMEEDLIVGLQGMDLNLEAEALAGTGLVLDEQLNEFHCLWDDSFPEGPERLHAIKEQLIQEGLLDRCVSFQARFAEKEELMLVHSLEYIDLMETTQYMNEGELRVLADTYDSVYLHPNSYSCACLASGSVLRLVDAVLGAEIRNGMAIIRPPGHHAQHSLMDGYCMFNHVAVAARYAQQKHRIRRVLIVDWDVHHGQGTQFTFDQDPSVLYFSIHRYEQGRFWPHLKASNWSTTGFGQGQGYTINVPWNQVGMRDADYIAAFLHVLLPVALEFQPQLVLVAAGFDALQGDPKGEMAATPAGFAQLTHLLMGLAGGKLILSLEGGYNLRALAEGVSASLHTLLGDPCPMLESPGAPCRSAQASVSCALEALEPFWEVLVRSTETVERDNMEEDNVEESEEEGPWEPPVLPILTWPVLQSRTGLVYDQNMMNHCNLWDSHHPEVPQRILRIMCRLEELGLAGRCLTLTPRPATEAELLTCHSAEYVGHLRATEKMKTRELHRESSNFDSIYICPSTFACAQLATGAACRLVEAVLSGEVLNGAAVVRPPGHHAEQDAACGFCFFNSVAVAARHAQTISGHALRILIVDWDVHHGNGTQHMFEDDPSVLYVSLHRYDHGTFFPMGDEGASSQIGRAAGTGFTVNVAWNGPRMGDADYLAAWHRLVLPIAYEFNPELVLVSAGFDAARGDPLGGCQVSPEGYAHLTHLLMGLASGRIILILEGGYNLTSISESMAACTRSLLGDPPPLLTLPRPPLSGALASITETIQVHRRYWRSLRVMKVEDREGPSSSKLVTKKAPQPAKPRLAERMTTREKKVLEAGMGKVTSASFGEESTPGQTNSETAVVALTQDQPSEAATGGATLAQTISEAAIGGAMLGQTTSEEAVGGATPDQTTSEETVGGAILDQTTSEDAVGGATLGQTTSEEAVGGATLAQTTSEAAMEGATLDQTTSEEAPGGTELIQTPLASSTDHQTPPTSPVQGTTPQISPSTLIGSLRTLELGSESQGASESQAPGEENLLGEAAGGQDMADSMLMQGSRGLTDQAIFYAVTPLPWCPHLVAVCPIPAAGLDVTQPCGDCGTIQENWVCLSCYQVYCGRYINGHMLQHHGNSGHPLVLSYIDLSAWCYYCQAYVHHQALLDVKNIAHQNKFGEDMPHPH

HDAC2 [12] = molecular target: T2, HDAC2; test: HDAC2 in vitro inhibition, dose response; type: biochemical
HDAC7 = HDAC7 (Homo sapiens (Human), UniProt Q8WUI4); test: HDAC7 in vitro inhibition, dose response; type: biochemical; settings: Table 1; read-out: Inhibitory Potency (IC50) HDAC 7
HepG2 cells [13] = tested on: HepG2 cells
HDAC1 [14] = molecular target: T1, HDAC1; test: HDAC1 in vitro inhibition, dose response; type: biochemical
in vivo = settings: mouse, plasma, po, 80 mg/kg
HepG2 cells [15] = test: cells; settings: Homo sapiens

Chain of HDAC10 (Q969S8 whole entry): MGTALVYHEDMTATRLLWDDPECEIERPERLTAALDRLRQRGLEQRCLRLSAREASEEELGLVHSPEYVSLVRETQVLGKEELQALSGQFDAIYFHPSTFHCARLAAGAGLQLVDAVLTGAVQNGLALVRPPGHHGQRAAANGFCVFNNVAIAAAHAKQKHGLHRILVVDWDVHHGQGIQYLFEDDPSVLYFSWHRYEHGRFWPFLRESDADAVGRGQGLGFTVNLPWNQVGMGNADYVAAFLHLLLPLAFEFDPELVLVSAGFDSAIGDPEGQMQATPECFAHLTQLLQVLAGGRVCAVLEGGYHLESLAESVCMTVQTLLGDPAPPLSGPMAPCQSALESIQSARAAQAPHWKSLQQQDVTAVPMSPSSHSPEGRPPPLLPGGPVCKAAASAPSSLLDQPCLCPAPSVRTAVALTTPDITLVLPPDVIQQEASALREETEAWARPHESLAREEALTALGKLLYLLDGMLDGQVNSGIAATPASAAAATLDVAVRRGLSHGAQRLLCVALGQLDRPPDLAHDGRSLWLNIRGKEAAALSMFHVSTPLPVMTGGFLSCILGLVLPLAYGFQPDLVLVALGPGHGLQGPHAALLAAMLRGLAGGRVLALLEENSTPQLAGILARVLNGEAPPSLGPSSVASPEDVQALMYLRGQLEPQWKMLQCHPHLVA

CCCCNNC(=O)c1ccc(Br)cc1 [UF010, 4-bromo-N′-butylbenzohydrazide]
IC50 (HDAC10): 15.3 µM
cell migration to the denuded areas (MDA-MB-231 cells [1]): markedly slowed migration
IC50 (HDAC1 [2]): 0.46 µM
CDKN1A (p21) expression by quantitative real-time PCR (CDKN1A): activation of CDKN1A
IC50 (HDAC4): > 100 µM
potency of HDAC1 inhibition in vitro (HDAC1 [3]): < 10 µM
Predicated activation state, Biological Functions (MDA-MB-231 cells [4]; Apoptosis): Activated
Predicated activation state, Upstream Regulators (MDA-MB-231 cells [4]; Butyric acid): Activated
Predicated activation state, Biological Functions (MDA-MB-231 cells [4]; Cell cycle progression): Suppressed
Predicated activation state, Biological Functions (MDA-MB-231 cells [4]; Cell survival): Suppressed
Predicated activation state, Upstream Regulators (MDA-MB-231 cells [4]; Cisplatin): Activated
Predicated activation state, Upstream Regulators (MDA-MB-231 cells [4]; ERK1/2): Activated
Predicated activation state, Upstream Regulators (MDA-MB-231 cells [4]; HDAC1): Suppressed
Predicated activation state, Upstream Regulators (MDA-MB-231 cells [4]; HDAC2): Suppressed
Predicated activation state, Upstream Regulators (MDA-MB-231 cells [4]; KRAS): Suppressed
number of genes downregulated by […] (MDA-MB-231 cells [4]; MDA-MB-231, 1 μM): 68
number of genes upregulated by […] (MDA-MB-231 cells [4]; MDA-MB-231, 1 μM): 115
Predicated activation state, Upstream Regulators (MDA-MB-231 cells [4]; MYCN): Suppressed
Predicated activation state, Upstream Regulators (MDA-MB-231 cells [4]; Myc): Suppressed
Predicated activation state, Biological Functions (MDA-MB-231 cells [4]; Necrosis): Activated
Predicated activation state, Biological Functions (MDA-MB-231 cells [4]; Proliferation of cells): Suppressed
Predicated activation state, Upstream Regulators (MDA-MB-231 cells [4]; Rb1): Activated
Predicated activation state, Biological Functions (MDA-MB-231 cells [4]; Repair of DNA): Suppressed
Predicated activation state, Upstream Regulators (MDA-MB-231 cells [4]; Romidepsin): Activated
Predicated activation state, Upstream Regulators (MDA-MB-231 cells [4]; TP53): Activated
Predicated activation state, Biological Functions (MDA-MB-231 cells [4]; Transcription of RNA): Suppressed
Predicated activation state, Upstream Regulators (MDA-MB-231 cells [4]; Tributyrin (butyrate)): Activated
Predicated activation state, Upstream Regulators (MDA-MB-231 cells [4]; Trichostatin A): Activated
Predicated activation state, Upstream Regulators (MDA-MB-231 cells [4]; fulvestrant): Activated
IC50 (HDAC2 [5]): 1.33 µM
IC50 (HDAC5): > 100 µM
IC50 (HDAC9): > 100 µM
inhibition of proliferation, NCI-60 panel [6]: inhibited proliferation of all tested cell lines
IC50 (MDA-MB-231 cells [7]): 31 µM
time at which histone acetylation (H3K18ac) was induced (HCT116 cells; HCT116, 6 h pulse exposure): ≤ 6 h
time up to which induced acetylation was maintained (HCT116 cells; HCT116, 6 h pulse then drug washout, time after drug addition): up to 96 h
mode of HDAC inhibition (on/off) (HCT116 cells; HCT116, washout experiment): fast-on but slow-off
IC50 (HDAC3 [8]): 0.19 µM
cell cycle effect (MDA-MB-231 cells [9]): mainly blocked G1/S transition
IC50 (HDAC8; Table 1, read-out: Inhibitory Potency (IC50) HDAC 8): 1.5 µM
IC50 (HDAC8; Table 2, read-out: HDAC 8 IC50): 1.5 µM
IC50 (MDA-MB-468 cells; MDA-MB-468, read-out: IC50 Control): 16.1 µM
IC50 (MDA-MB-468 cells; MDA-MB-468, read-out: IC50 HDAC2 shRNA): 32.8 µM
reduction of cytotoxic potency by HDAC2 shRNA expression (MDA-MB-468 cells; MDA-MB-468): about 2 fold
IC50 (HDAC11): 44.5 µM
abnormal physical or mental behaviors [10]: No signs
IC50 (HDAC3 [11]; Table 1, read-out: Inhibitory Potency (IC50) HDAC 3): 0.06 µM
IC50 (HDAC3 [11]; Table 2, read-out: HDAC 3 IC50): 0.06 µM
α-tubulin acetylation (HCT116 and A549 cells; HCT116 and A549, 1 h, TSA 0.2 μM, UF010 2 μM): little to no effect
accumulation of acetylated p53 (HCT116 and A549 cells; HCT116 and A549, after exposure to etoposide): induced accumulation of acetylated p53
p53 stabilization (HCT116 and A549 cells; with or without etoposide treatment): notably stabilized p53
IC50 (HDAC6; Table 1, read-out: Inhibitory Potency (IC50) HDAC 6): 9.1 µM
IC50 (HDAC6; Table 2, read-out: HDAC 6 IC50): 9.1 µM
IC50 (HDAC2 [12]; Table 1, read-out: Inhibitory Potency (IC50) HDAC 2): 0.1 µM
IC50 (HDAC2 [12]; Table 2, read-out: HDAC 2 IC50): 0.1 µM
IC50 (HDAC7): > 100 µM
reduction of cytotoxic potency by HDAC2 shRNA expression (HepG2 cells [13]): about 2 fold
IC50 (HDAC1 [14]; Table 1, read-out: Inhibitory Potency (IC50) HDAC 1): 0.5 µM
IC50 (HDAC1 [14]; Table 2, read-out: HDAC 1 IC50): 0.5 µM
AUC (in vivo): 6.07 µM·h
Cmax (in vivo): 5.95 µM
Tmax (in vivo): 15 min
half-life (in vivo): 74.4 min
IC50 (HepG2 cells [15]; HepG2, read-out: IC50 Control): 4.6 µM
IC50 (HepG2 cells [15]; HepG2, read-out: IC50 HDAC1 shRNA): 5.9 µM
IC50 (HepG2 cells [15]; HepG2, read-out: IC50 HDAC2 shRNA): 10.9 µM
IC50 (HepG2 cells [15]; HepG2, read-out: IC50 HDAC3 shRNA): 1.3 µM
